Here are results for two molecules from PMC5587768, “Ligand activation induces different conformational changes in CXCR3 receptor isoforms as evidenced by plasmon waveguide resonance (PWR)” (Scientific Reports, 2017).

Test [1] has as its target T1, CXCR3-A (Homo sapiens, UniProt P49682).
T1 construct: The coding regions of human CXCR3-A or CXCR3-B cDNA; expressed in transfected cells; host or cells: HEK-293, stably transfected (HEK-CXCR3-A)
T1 sequence (P49682 1-368): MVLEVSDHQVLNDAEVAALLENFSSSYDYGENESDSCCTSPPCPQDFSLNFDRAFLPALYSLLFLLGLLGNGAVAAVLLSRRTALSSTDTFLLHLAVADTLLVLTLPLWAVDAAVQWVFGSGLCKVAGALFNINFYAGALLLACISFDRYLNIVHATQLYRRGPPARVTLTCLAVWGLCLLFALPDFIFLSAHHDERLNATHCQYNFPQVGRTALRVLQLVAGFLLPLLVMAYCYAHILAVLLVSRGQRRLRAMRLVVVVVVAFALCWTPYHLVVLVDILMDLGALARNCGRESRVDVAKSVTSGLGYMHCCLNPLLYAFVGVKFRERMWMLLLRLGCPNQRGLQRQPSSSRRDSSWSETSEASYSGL
Put plainly: Plasmon waveguide resonance (PWR) on HEK-CXCR3-A cell membrane fragments. Type of test: binding. The note with it: for Kd: HEK-CXCR3-A cell fragments, incremental ligand addition, hyperbolic fit; for Difference in KD between CXCR3-A and CXCR3-B (higher affinity for CXCR3-A): KD CXCR3-B versus KD CXCR3-A. An excerpt:
(§1) Ligand-mediated activation of CXCR3 was studied by PWR and flow cytometry measuring calcium flux. The former technique allows to determine the affinity, ligand-binding kinetics and anisotropy of the events occurring at the sensor surface. This technique gives the possibility of following resonance with two types of polarizations, p- and s-polarizations. PWR can be applied both to artificial lipid model systems with reconstituted receptors or to cell fragments[27]–[34]. In the present study, cell membrane fragments from cells expressing the CXCR3-A and CXCR3-B receptors were immobilized on the PWR sensor which is composed of a prism coated with a silver layer and overcoated with a silica layer. The prism is pre-treated with polylysine to promote cell adhesion by electrostatic interactions between the negative charges provided by the cell surface glycosaminoglycans (GAGs) and the positive charges of polylysine. The quality of HEK-CTRL, HEK-CXCR3-A and HEK-CXCR3-B membrane fragments was verified by confocal microscopy by visualizing the GFP-tagged receptors using glass slides of the same material (silica) than the outer layer of the sensor surface (Fig. 1A). The presence of fluorescent membrane fragments on the glass slide of few μm were evidenced in agreement with reported literature.
(§2) In contrast, membrane fragments of cells expressing either CXCR3-A or CXCR3-B responded to ligand stimulation in a saturable manner (Fig. 2; Fig. S3). […] PWR is sensitive to both, mass and structural changes. Inasmuch as the ligand is far too small to contribute to a mass change by itself, the PWR spectral changes observed correspond to ligand-induced receptor conformational changes (upon formation of the R/L complex). From the saturable and hyperbolic binding response, a dissociation constant was determined. The cell fragments are quite stable after sensor immobilization as no alterations in the spectra were observed after repetitive and extensive washing with buffer. Furthermore, lipids and receptors are oriented with their long axis along the p-polarization axis as shown by the anisotropic response. Thus, spectral modifications observed in p-polarization reflect changes along the receptor main axis, while modifications in s-polarization reflect changes along the receptor minor axis (Fig. S2). In HEK-CXCR3-A cells, agonist binding led to an increase in the resonance minimum position for both p- and s-polarization. A positive shift in the resonance angle is correlated with an increase in the refractive index due to a mass increase in the system. Since the ligand, by itself, is too small to be able to produce such spectral changes, the response can only be attributed to conformational change in the receptor which is reflected by an increase in mass density. […] The negative shift, while of considerably smaller magnitude, results from a slight decrease in the mass density in the system and can be attributed to a conformational change leading to a looser and less ordered arrangement of the TM helices accompanied by a slight decrease in length. Thus, agonist-mediated CXCR3 activation leads to opposite conformational changes depending on the CXCR3 isoform.
(§3) PWR measurements were performed in a homemade instrument equiped with a He-Ne laser, with a fixed wavelenght in the visible region (λ = 632 nm; Melles Griot), a rotating table allowing the incident angle to be changed by steps ≤1 mdeg (thus resolution being on that order; Newport) and a photodiode detector (Hamamatsu) to measure the reflected light as a function of the incident angle. The polarization angle of the incident beam is placed at 45° allowing both p- and s-polarized spectra to be obtained within the same angular scan. The sensor consisted in a BK-7 prism coated with silver and silica (to support waveguide modes)[36]. All measurements were performed at 22 °C in a temperature controlled room. More details about this technology can be found. […]

Test [2] concerns the target T2, CXCR3-B (Homo sapiens, UniProt P49682).
T2 construct: The coding regions of human CXCR3-A or CXCR3-B cDNA; expressed in transfected cells; host or cells: HEK-293, stably transfected (HEK-CXCR3-B)
T2 sequence (P49682 1-415 isoform P49682-2): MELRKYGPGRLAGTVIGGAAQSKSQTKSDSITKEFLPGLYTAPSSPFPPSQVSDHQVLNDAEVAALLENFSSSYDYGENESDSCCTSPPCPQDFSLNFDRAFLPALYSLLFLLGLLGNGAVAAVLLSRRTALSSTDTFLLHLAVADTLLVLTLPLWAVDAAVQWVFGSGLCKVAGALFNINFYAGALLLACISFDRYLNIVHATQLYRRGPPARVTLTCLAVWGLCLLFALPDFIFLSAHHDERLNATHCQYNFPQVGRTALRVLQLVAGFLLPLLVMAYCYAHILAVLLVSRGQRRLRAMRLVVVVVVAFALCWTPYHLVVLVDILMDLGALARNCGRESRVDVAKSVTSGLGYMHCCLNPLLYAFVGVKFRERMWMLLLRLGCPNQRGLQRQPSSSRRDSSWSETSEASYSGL
Nature of the test: Plasmon waveguide resonance (PWR) on HEK-CXCR3-B cell membrane fragments. Type of test: binding. The note with it: for Kd: HEK-CXCR3-B cell fragments, incremental ligand addition, hyperbolic fit.
From the text: as §1, §2, §3

A further test relates to HEK-CTRL cell fragments. Put plainly: Plasmon waveguide resonance (PWR) on HEK-CTRL cell fragments (empty GFP vector control). Type of test: binding, human.
From the text: as §2
as §3, with “found. The protocol for adhesion of cell fragments on silica (glass slides or PWR sensor) was adapted from reported work from Vogel and collaborators.” for “found.”

The target of test [3] is T1, CXCR3-A. Nature of the test: Calcium flux by flow cytometry in HEK-CXCR3-A cells. Type of test: cell-based. As to the method: (§4) Human Embryonic Kidney (HEK-293) cell lines, were regularly tested for contamination and were all mycoplasma-free. Cells were cultured in Dulbecco’s Modified Eagle’s medium (DMEM, Thermo Fisher Scientific) supplemented with 10% Fetal Bovine Serum (FBS), 5% antibiotics (Penicillin and […]) and 5% L-glutamine. All cells were grown at 37 °C, 5% CO2 and split at 70–90% of confluence with 0.25% Trypsin. Cell transfection was performed using Effecten kit (Qiagen) according to the manufacter’s instruction. HEK-CTRL (HEK-293 stably transfected with empty pEGFPN2 vectors) HEK-CXCR3-A cells and HEK-CXCR3-B (HEK-293 stably transfected with pEGFPN2 + CXCR3-A or pEGFPN2 + CXCR3-B vectors, respectivly) were grown in the presence of Zeocin (200 µg/ml). For inhibition experiments, cells were pretreated 1 h with the CXCR3 antagonist SCH546738 at dose-dependant concentration. SCH546738 is a small molecular lipophilic molecule, with the chemical formula: C23H31Cl2N7O. […] For this reason a concentration range from 0.5 to 2.2 nM has been used.
(§5) Intracellular calcium concentration was measured using Calcium Assay Kit (BD 640176) according to the manufacter’s procedure on an AccuriC6 flow cytometer equipped with BD AccuriC6 software (BD, San Jose, CA). Cells were placed in suspension and 1X Dye loading solution was added for 20 min at 37 °C. Calcium concentration was then recorded for 5 min on the AccuriC6 flow cytometer. CXCR3 agonist stimulation was performed after 2 min of recording and intracellular calcium increase was visualized. Calcium concentration after stimulation was normalized by calcium concentration before stimulation. Cells without 1X dye loading solution were used as a negative control in order to quantify the background level.
On the technique in general: Calcium assays in cells follow changes in intracellular calcium, usually with a dye or a luminescent sensor.

The target of test [4] is T2, CXCR3-B. Nature of the test: Calcium flux by flow cytometry in HEK-CXCR3-B cells. Type of test: cell-based. On the procedure: as §4, §5
The next test deals with CXCR3. The conditions noted are these: cited from earlier work.

Structures are written as SMILES. Several values for one entry are separate records, joined by “and”; a condition that tells them apart may be missing. Equal entries are not always repeated.

What is called IC50 is the concentration at which inhibition is half-maximal. With `NC(N)=NCCC[C@H](NC(=O)[C@@H]1Cc2ccccc2CN1C(=O)CCC(=O)c1ccccc1)C(=O)NCC1CCCCC1` [PS372424], the “Shift in resonance minimum position, P-pol” value at CXCR3-A [1] (HEK-CXCR3-A, p-polarization, incremental addition to saturation) is listed as 16 +/- 12 mdeg; on CXCR3-B [2] (HEK-CXCR3-B, p-polarization, incremental addition to saturation), -5 +/- 1 mdeg; in the test on HEK-CTRL cell fragments (HEK-CTRL, p-polarization), 0 +/- 1 mdeg. The “Shift in resonance minimum position, S-pol” value on CXCR3-A [1] (HEK-CXCR3-A, s-polarization, incremental addition to saturation) is listed as 4 +/- 1 mdeg; at CXCR3-B [2] (HEK-CXCR3-B, s-polarization, incremental addition to saturation), -4 +/- 1 mdeg; with HEK-CTRL cell fragments (HEK-CTRL, s-polarization) it was 0 +/- 1 mdeg. Further, the Kd was found to be 40 nM on CXCR3-A [1] (PWR) and 450 nM on CXCR3-B [2] (PWR). The “Difference in KD between CXCR3-A and CXCR3-B (higher affinity for CXCR3-A)” value at CXCR3-A [1] (PWR) is recorded as 10 fold. Further, the KD entry in the test on HEK-CTRL cell fragments (PWR, HEK-CTRL cell fragments) is “No binding”. Further, the “Intracellular calcium flux after agonist stimulation” value at CXCR3-A [3] (HEK-CXCR3-A cells) and at CXCR3-B [4] (HEK-CXCR3-B cells) was “increase intracellular calcium flux” in each case. In the test on CXCR3 (isoforms not distinguished, read-out: IC50 reported for binding to CXCR3), the half-maximal inhibitory concentration (IC50) is 42 nM.

Regarding `CC[C@H]1CN(c2nc(N)c(C(N)=O)nc2Cl)CCN1C1CCN(Cc2ccc(Cl)cc2)CC1` [SCH546738], the Kd at CXCR3-A [1] (PWR) is 0.5 nM; on CXCR3-B [2] (PWR), 1.5 nM; on CXCR3 (other reports and methods, read-out: Affinity to CXCR3 reported), 0.8 to 2.2 nM and 0.4 to 2.2 nM. Further, the “Agonist binding after SCH546738 at 1 nM” value at CXCR3-A [1] (PWR, HEK-CXCR3-A, SCH546738 1 nM) is recorded as “totally abrogated”; at CXCR3-B [2] (PWR, HEK-CXCR3-B, SCH546738 1 nM), “binding was still observed”. Also, the “Agonist binding after SCH546738 at saturating concentration” value is reported as “completely abolished” on CXCR3-A [1] (PWR, HEK-CXCR3-A, SCH546738 2.2 nM, 1 h) and “completely abolished” at CXCR3-B [2] (PWR, HEK-CXCR3-B, SCH546738 2.2 nM, 1 h). Further, the “Difference in KD between CXCR3-A and CXCR3-B (higher affinity for CXCR3-A)” value at CXCR3-A [1] (PWR) was 3 fold. In addition, the “PWR response of control cell fragments (non-specific binding)” value in the test on HEK-CTRL cell fragments (HEK-CTRL cell fragments) is reported as “did not respond”. In addition, the “Receptor activation by agonist (calcium flux) after SCH546738 pretreatment” value on CXCR3-A [3] (HEK-CXCR3-A cells pretreated with SCH546738) and on CXCR3-B [4] (HEK-CXCR3-B cells pretreated with SCH546738) was “no longer activated” each time. Moreover, the “Inhibition of CXCR3-A activation (calcium flux)” value on CXCR3-A [3] (at 1 nM) is “more than 70%”. The “Inhibition of CXCR3-B activation (calcium flux)” value on CXCR3-B [4] (at 1 nM) amounted to 25%.
